Test results from US5969174A, “Competitive inhibitors of glyoxalase I and method of generating such competitive inhibitors inside tumor cells” (priority 1998, dated 1999).
“Also recorded” adds a separate entry of the source. Like-named read-outs stand apart in the source and are kept apart here. One block for each compound: values may come before it.

Assays:
[1] = test system: L1210 cells; experiment: Growth inhibition / cytotoxicity, murine leukemia L1210 cells in culture; assay type: cell-based; conditions: for IC50: L1210, 48 h; for greater potency of sulfoxide versus diethyl ester: L1210 cells
[2] = test system: B16 melanotic melanoma cells; experiment: Growth inhibition, B16 melanotic melanoma cells in culture; assay type: cell-based, murine
Procedure: As a consequence, they are the strongest competitive inhibitors of human GlxI yet described, Table 1. […] With both cell lines there was some correlation between the Ki values of the enediol analogs and the IC50 values of the corresponding diethyl esters.
^d Sp-bromobenzylglutathione diethyl ester. Cells were incubated for
48 h in RPMI 1640/10% fetal calf serum (37° C.) in the absence and
in the presence of enzyme inhibitor. After the initial addition of
inhibitor at time zero, fresh inhibitor was added every 12 h in order to
compensate partially for the loss of inhibitor due to spontaneous
hydrolytic deethylation in the growth medium.

[3] = test system: splenic lymphocytes; experiment: Toxicity toward nonproliferating splenic lymphocytes; assay type: cell-based
Description: Conditions: See Table 1. Error bars represent standard deviations for triplicate determinations. Different symbols correspond to experiments carried out on different days.
This is illustrated for 2(Et)2 and S-p-bromobenzylglutathionediethyl ester by the dose-response curves of FIG. 3. […] Therefore, tumor cells might not be able to detoxify the inhibitors as rapidly as normal cells. In order to determine whether this could be a factor in the present study, the glyoxalase activities in both L1210 cells and splenic lymphocytes were determined. Indeed, while the GlxI activities in the two cell lines are nearly equal, the GlxII activity in L1210 cells is about 10-fold lower than that in splenic lymphocytes. The activities of GlxI and GlxII in L1210 cells were respectively 0.31±0.03 U/mg and 0.02±0.003 U/mg, while the activities in splenic lymphocytes were respectively 0.36±0.03U/mg and 0.20±0.03 U/mg.

[4] = test system: L1210 cells; experiment: Cell permeability / intracellular appearance of enediol analog in L1210 cells; assay type: in vitro ADME, murine
Procedure: In order to understand the mechanism of intracellular delivery of the enediol analogs, suspensions of L1210 cells were separately incubated with the diacid 2 and with the corresponding diethyl ester 2(Et)2. The rate of appearance of these species in the intracellular fraction was then monitored as a function of time by reverse-phase HPLC (FIG. 4). […] After 90 minutes, the concentration of 2 decreased, possibly due to a combination of factors including (a) 10-20% cell death over the course of the experiment, (b) hydrolytic deethylation of extracellular 2(Et)2, and (c) GlxII-catalyzed decarbamoylation of intracellular 2.
To suspensions of L1210 cells (~1.5(10^6 cells/ml) in RPMI 1640 medium, containing 10% heat-inactivated fetal calf serum, gentamycin (10 μg/ml) and L-glutamate, at 37° C., were added fixed concentrations of 2a. Aliquots (1 ml) were removed from the cell suspension as a function of time, overlaid onto 0.4 ml of silicone oil (SF-1250 silicone fluids, General Electric Co., Silicone Products Division, Waterford, N.Y.) contained in an eppendorf centrifuge tube and centrifuged at 11,000×g (15 min) at 25° C. The supernatant and silicone oil were decanted from the cell pellet and residual oil removed from the inside of the centrifuge tube with a cotton swab. To the pellet was added 1 ml 70% ethanol in water and the suspension sonicated for 5 minutes. The denatured protein was sedimented by centrifugation (11,000×g, 15 min) and the clear supernatant was removed. The supernatant was brought to dryness under a stream of argon, and the resulting residue was fractionated by reverse-phase HPLC (Waters μBondapak C18, 0.78(30 cm), using a mobile phase composed of methanol:water (1:1) containing 0.25% acetic acid at a flow rate of 2 ml/min. The integrated intensity of the peak corresponding S-(N-p-chlorophenyl-N-hydroxycarbamoyl) glutathione was determined at λ=260 nm. Concentrations were extrapolated from standard curves that were linear in the range 0.1 to 4.0 nmoles (r=0.997).

[5] = Stability in human serum; assay type: in vitro ADME
Procedure: To 0.5 ml portions of either human serum or mouse serum, at 37° C., was added compound 2(Et)2 to an initial concentration of approximately 0.15 mM. As a function of time, 0.1 ml aliquots of the incubation mixture were transferred to separate microfuge tubes. The samples were immediately deproteinized by the addition of 70% ethanol (0.9 ml). After incubation for 30 minutes at 37° C., the protein precipitate was sedimented by centrifugation at […]. The supernatants were then fractionated by reverse-phase HPLC, as described above, and the integrated intensities of the peaks corresponding to 2(Et)2 determined. The rate constants for deethylation were calculated from the first-order rate of loss of 2(Et)2 as a function of time.
To identify a murine model suitable for in vivo testing of the GlxI inhibitors, the stability of 2(Et)2 was evaluated in human serum and in serum samples obtained from different strains of tumor-bearing mice. In human serum, 2(Et)2 undergoes slow first-order hydrolysis to a mixture of diacid and monoethyl esters, as monitored by reverse-phase HPLC (FIG. 6). For serum samples obtained from four different individuals, T1/2 =9.1±5.3 hours (n=4). […]

[6] = Stability in mouse serum/plasma; assay type: in vitro ADME
[7] = biological target: human erythrocyte GlxI; conditions: cited from earlier work
[8] = n-octanol/water partition coefficient
[9] = Acyl-interchange reaction with glutathione in a cell-free system; assay type: physicochemical; conditions: for k2, second order rate constant for acyl-interchange with glutathione: 50 mM potassium phosphate, pH 7.5, 5% ethanol, 25° C.
Procedure: In principle, an acyl-interchange reaction might serve as the basis of an improved prodrug strategy, provided that the acylating reagent diffuses rapidly across cell membranes and then reacts rapidly with intracellular glutathione to give the enediol analog. Three N-hydroxycarbamate thioethyl esters (2(a-c)) and the corresponding sulfoxides (3(a-c)) were prepared (FIG. 7) and their rates of acyl-interchange with glutathione in a cell free system evaluated (Table II). Sulfoxidation of N,N-di-n-propylcarbamate thioalkyl esters activates these species for acyl-interchange with glutathione. […] The N--OH function appears to inductively activate the sulfoxides for acyl-interchange, as the rate constant for 3a exceeds that of the corresponding N--CH3 derivative 3c by 13-fold. The products of the interchange reactions were confirmed as the corresponding enediol analogs, on the basis that their UV spectra and their migratory properties on a reverse-phase C18 column were identical with those of authentic samples of enediol analog.
Second order rate constants for the
acyl-interchange reactions between glutathione and the list thioesters
CH3 CH2 XC(O)N(Y)Z + GSG ---(k2)--> GSC(O)B(Y)Z +
Conditions: Potassium phosphate buffer (50 mM), pH 7.5, 5% ethanol, […]

[10] = test system: L1210 cells; experiment: Cell permeability / intracellular appearance of enediol analog in L1210 cells; assay type: in vitro ADME, murine; remark: listed apart in the source
[11] = test system: HL60 cells; conditions: cited from earlier work
[12] = test system: rat adrenal pheochromocytoma PC-12 cells; conditions: literature (26); read-out: IC50, growth of PC-12 cells; cited from earlier work
[13] = test system: HL60 cells; conditions: literature (15); cited from earlier work
[14] = test system: tumor cells; conditions: literature (5-8); cited from earlier work

SMILES: CCOC(=O)CNC(=O)[C@H](CSC(=O)N(O)c1ccc(Cl)cc1)NC(=O)CC[C@H](N)C(=O)OCC [2(Et)2, S-(N-p-chlorophenyl N-hydroxycarbamoyl) glutathione diethyl ester]
growth inhibition / cytotoxicity in words, L1210 ([1]; L1210 cells in vitro): inhibited the growth | cytotoxicity at 100 µM ([1]; Mus musculus, L1210, 48 h, 100 μM, read-out: killing of L1210 cells): ~100% | IC50 ([1]; Mus musculus, RPMI 1640/10% fetal calf serum, 37° C., fresh inhibitor every 12 h, mean ± SD, read-out: IC50, 50% growth inhibition, L1210): 9.5 ± 3.8 µM | growth inhibition / cytotoxicity in words, B16 ([2]; B16 cells in vitro): inhibited the growth | IC50 ([2]; Mus musculus, 48 h, RPMI 1640/10% fetal calf serum, 37° C., fresh inhibitor every 12 h, mean ± SD, read-out: IC50, 50% growth inhibition, B16): 28 ± 7 µM | decrease in viability of splenic lymphocytes ([3]; 100 μM): less than 50% | toxicity to splenic lymphocytes / selectivity in words ([3]; L1210 cells versus splenic lymphocytes): significantly more toxic to L1210 cells than to splenic lymphocytes | intracellular uptake in words ([4]; L1210 cells): rapid increase in intracellular [2] during the first 90 min; also recorded: linear function of extracellular [2(Et)2 ] in the range 0.01 to 1.0 mM; also recorded: Only trace amounts of the monoethyl esters and diethyl ester of 2 were found in the intracellular fractions; also recorded: high intracellular concentrations of the corresponding diacid 2 | maximum concentration of 2 inside cells versus extracellular concentration of 2(Et)2 ([4]; exceeds extracellular): about three-fold | apparent first order rate constant for diffusion of diethyl ester into L1210 cells ([4]; in vitro, 37° C.): 0.04 min⁻¹ | first order rate constant for appearance of 2 inside L1210 cells ([4]; incubated in the presence of 2(Et)2): 2.2 h⁻¹ | first order rate constant for deethylation in human serum ([5]; 37° C., FIG. 6): 0.147 ± 0.015 h⁻¹ | half-life at 150 µM ([5]; human, serum, n=4, read-out: T1/2 in human serum (converted)): 9.1 ± 5.3 h | half-life at 150 µM ([6]; mouse, serum, DBA/2(C57BL/6 mice, n=5, read-out: T1/2 in serum of plasma esterase-deficient mice (converted)): 3.9 ± 0.6 h | half-life at 150 µM ([6]; mouse, serum, DBA/2, C57BL/6, NCr nu/nu and CD2 F1 mice, read-out: T1/2, deethylation in mouse serum): < 0.00833 h | Ki ([7]; of the unethylated species with human erythrocyte GlxI (17), read-out: Ki, competitive inhibition constant): 0.046 µM | logP [8]: 0.996

SMILES: N[C@@H](CCC(=O)N[C@@H](CSC(=O)N(O)c1ccc(Cl)cc1)C(=O)NCC(=O)O)C(=O)O [Compound 2, S-(N-p-chlorophenyl N-hydroxycarbamoyl)glutathione]
intracellular uptake in words ([4]; L1210 cells): no significant time-dependent increase in intracellular [2] | Ki ([7]; FIG. 8, read-out: Ki, tight-binding competitive inhibitor of human glyoxalase I): 0.046 µM | logP [8]: < -2

apparent first order rate constant for appearance of enediol analog inside the cells on incubation with sulfoxide [4]: 1.41±0.03 min^-1 | maximum intracellular concentration of inhibitor versus extracellular concentration of sulfoxide [4]: about 10 -fold | rate of influx of sulfoxide relative to diethyl ester 1(Et)2 [4]: 35 -fold | time to maximum intracellular concentration of inhibitor [4]: about 17 minutes | first order rate constant for loss of sulfoxide from serum ([6]; DBA/2 mice, n=3): 0.06 ± 0.01 min⁻¹ | half-life ([6]; mouse, serum, DBA/2 mice, n=3, read-out: T1/2 of sulfoxide in serum): 0.217 ± 0.0333 h
SMILES: CC[S+]([O-])C(=O)N(O)c1ccc(Cl)cc1 (stereo not drawn) [Compound 3a, S-(N-Hydroxy-N-p-chlorophenylcarbamoyl)ethyl sulfoxide]
greater potency of sulfoxide versus diethyl ester [1]: 10 -fold | greater potency of sulfoxide versus diethyl ester ([1]; listed as S-(N-p-chlorophenyl-N-hydroxycarbamoyl)ethylsulfoxide): about 10 -fold | IC50 ([1]; Mus musculus, fresh drug every 12 h, read-out: IC50 toward L1210 cells, sulfoxide): 0.8 ± 0.5 µM | intracellular uptake in words [4]: rapid increase in the intracellular concentration of the corresponding enediol analog | rate constant relative to thioester 2a [9]: exceed by several-fold that with the thioester 2 a | k2, second order rate constant for acyl-interchange with glutathione [9]: 30.7 ± 1.2 M⁻¹ s⁻¹ | second order rate constant for acyl-interchange reaction ([9]; 100 mM potassium phosphate, 5% ethanol, pH 7.5, 25° C.): 30.7 M⁻¹ s⁻¹ | rate constant relative to N--CH3 derivative 3c ([9]; exceeds): 13 -fold | reduction of intracellular glutathione concentration [10]: less than 1%

SMILES: CC[S+]([O-])C(=O)N(C)O (stereo not shown) [Compound 3b]
rate constant relative to thioester 2a [9]: exceed by several-fold that with the thioester 2 a | k2, second order rate constant for acyl-interchange with glutathione [9]: 9.83 ± 0.33 M⁻¹ s⁻¹

SMILES: C[C@@H](O)C(=O)SC[C@H](NC(=O)CC[C@H](N)C(=O)O)C(=O)NCC(=O)O [S-D-lactoylglutathione]
growth of HL60 cells ([11]; literature (25)): inhibits the growth of HL60 cells in culture

SMILES: CC(C)OC(=O)CNC(=O)[C@H](CSC(=O)OCC1c2ccccc2-c2ccccc21)NC(=O)CC[C@H](N)C(=O)OC(C)C [S-fluorenylmethoxycarbonyl glutathionediisopropyl ester]
IC50 [12]: 275 µM

SMILES: N[C@@H](CCC(=O)N[C@@H](CSCc1ccc(Br)cc1)C(=O)NCC(=O)O)C(=O)O [S-p-bromobenzylglutathione]
effect on human leukemia HL60 cells ([11]; literature): both cytostatic and cytotoxic to these cells

SMILES: N[C@@H](CCC(=O)N[C@@H](CSCc1ccc(Br)cc1)C(=O)NCC(=O)OC1CCCC1)C(=O)OC1CCCC1 [dicyclopentyl ester of S-p-bromobenzylglutathione]
potency relative to the diethyl ester, HL60 ([11]; literature (14)): twice as potent as the diethyl ester | concentration of intracellular methylglyoxal [13]: increased the measured concentration of intracellular methylglyoxal

SMILES: CC(=O)C=O [methylglyoxal]
inhibition of tumor cells by exogenous methylglyoxal [14]: selective inhibitory activity toward rapidly proliferating tumor cells versus nonproliferating normal cells in vitro; also recorded: inhibit the growth of tumor cells in tissue culture
